Reference: patent publication US8192962B2, “Processes for detecting toxic substances” (Daikin Industries, Ltd., priority 2001, dated 2012)

Test system: Mitochondria-located protein genes
Assay: DNA chip mRNA expression in yeast, mitochondria-located protein genes (Table 2)
Assay type: cell-based, Saccharomyces cerevisiae S288C
Details: cells incubated two hours with the chemical substance
In short: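 First, S288C yeast grown in YPD at 25° C. are dosed in log phase with one toxicant (growth-inhibiting, not lethal) for 2 h. Next, total RNA is extracted and poly(A) mRNA isolated and reverse-transcribed with Cy3/Cy5-dUTP. Finally, whole-genome chip fluorescence is read relative to unexposed cells.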

Measured: The level of expressed mRNA in the presence of chemical substance/The level of expressed mRNA in the absence of chemical substance

COc1cc(CNC(=O)CCCCC=CC(C)C)ccc1O [(12), 8-methyl-N-vanillyl-6-nonenamide]
1.7: yeast gene YNL055C
1.0: yeast gene YKL016C | yeast gene YLR304C
1.2: yeast gene YOL096C | yeast gene YOR037W
0.9: yeast gene YKR066C | yeast gene YLR348C | yeast gene YML120C | yeast gene YOR130C | yeast gene YPL040C | yeast gene YPR037C | yeast gene YPR047W | yeast gene YPR134W
0.7: yeast gene YKL003C | yeast gene YLR259C | yeast gene YMR023C | yeast gene YMR083W | yeast gene YMR203W | yeast gene YNL073W | yeast gene YPL215W
0.5: yeast gene YLR295C | yeast gene YMR035W
0.6: yeast gene YKL194C | yeast gene YLR038C | yeast gene YLR395C | yeast gene YNL256W
0.8: yeast gene YJR121W | yeast gene YKL141W | yeast gene YKL148C | yeast gene YKL170W | yeast gene YLL041C | yeast gene YML129C | yeast gene YMR089C | yeast gene YMR267W | yeast gene YOR020C | yeast gene YOR100C | yeast gene YOR142W | yeast gene YOR150W | yeast gene YOR187W | yeast gene YPL134C | yeast gene YPR024W
1.1: yeast gene YNL104C | yeast gene YOR316C | yeast gene YPL135W | yeast gene YPL262W
1.9: yeast gene YKL142W
1.8: yeast gene YML054C
1.3: yeast gene YMR152W | yeast gene YNL071W | yeast gene YOR176W
